Consider eight compounds from ChEMBL document CHEMBL1145302, “Synthesis and antibacterial activity of C6-carbazate ketolides” (2006).

Values after ≈ are worked out from the molar mass of the structure shown. Where only a bound is given, the exact number is not on record here.

Format in all cases: functional
One experiment relates to Haemophilus influenzae. Nature of the experiment: Antibacterial activity against telithromycin-susceptible Haemophilus influenzae ATCC 49766.
In experiment [1] the test system is Streptococcus pneumoniae. Nature of the experiment: Antibacterial activity against erythromycin-resistant Streptococcus pneumoniae OC4051 containing erm(B).
Experiment [2] has as its system Streptococcus pneumoniae. The experiment can be described thus: Antibacterial activity against erythromycin-susceptible Streptococcus pneumoniae OC9132.
Experiment [3] deals with Staphylococcus aureus. Nature of the experiment: Antibacterial activity against erythromycin-susceptible Staphylococcus aureus Smith OC4172.
Experiment [4] relates to Streptococcus pneumoniae. Nature of the experiment: Antibacterial activity against erythromycin-resistant Streptococcus pneumoniae OC4421 containing mef(A).
Experiment [5] concerns Staphylococcus haemolyticus. The experiment can be described thus: Antibacterial activity against erythromycin resistant Staphylococcus haemolyticus OC3882 containing erm(C).
For experiment [6], the system named is Staphylococcus aureus. Nature of the experiment: Antibacterial activity against erythromycin-susceptible Staphylococcus aureus Smith OC4172 in presence of 50% mouse serum.

For `CC[C@H]1OC(=O)[C@H](C)[C@@H](O[C@H]2C[C@@](C)(OC)[C@@H](O)[C@H](C)O2)[C@H](C)[C@@H](O[C@@H]2O[C@H](C)C[C@H](N(C)C)[C@H]2O)[C@](C)(O)C[C@@H](C)C(=O)[C@H](C)[C@@H](O)[C@]1(C)O` [ERYTHROMYCIN], the MIC against Haemophilus influenzae is 8 µg/mL (≈ 10.9 µM); against Streptococcus pneumoniae [1], > 16 µg/mL; against Streptococcus pneumoniae [2] it was 0.06 µg/mL (≈ 0.0818 µM); in the experiment on Staphylococcus aureus [3], 1 µg/mL (≈ 1.36 µM); in the experiment on Streptococcus pneumoniae [4] it was 4 µg/mL (≈ 5.45 µM); in experiment [5], > 16 µg/mL. The MIC in the experiment with Staphylococcus aureus [6] is 0.06 µg/mL.

On to `CC[C@H]1OC(=O)[C@H](C)C(=O)[C@H](C)[C@@H](O[C@@H]2O[C@H](C)C[C@H](N(C)C)[C@H]2O)[C@](C)(OC(=O)NN)C[C@@H](C)C(=O)[C@H](C)[C@H]2NC(=O)O[C@@]21C`, for which the MIC against Haemophilus influenzae came out at 8 µg/mL (≈ 12.2 µM); against Streptococcus pneumoniae [1], 8 µg/mL (≈ 12.2 µM); against Streptococcus pneumoniae [2] it was 0.5 µg/mL (≈ 0.761 µM); in the experiment with Staphylococcus aureus [3], 8 µg/mL (≈ 12.2 µM); in the experiment on Streptococcus pneumoniae [4], 8 µg/mL (≈ 12.2 µM); in experiment [5], 16 µg/mL (≈ 24.4 µM). The MIC in the experiment with Staphylococcus aureus [6] came to 2 µg/mL.

With `CC[C@H]1OC(=O)[C@H](C)C(=O)[C@H](C)[C@@H](O[C@@H]2O[C@H](C)C[C@H](N(C)C)[C@H]2O)[C@](C)(OC(=O)NNCCc2ccc(-c3ncccn3)cc2)C[C@@H](C)C(=O)[C@H](C)[C@H]2NC(=O)O[C@@]21C`, the MIC amounted to 4 µg/mL (≈ 4.77 µM) against Haemophilus influenzae; 0.12 µg/mL (≈ 0.143 µM) against Streptococcus pneumoniae [1]; 0.03 µg/mL (≈ 0.0358 µM) in the experiment with Streptococcus pneumoniae [2]; 0.25 µg/mL (≈ 0.298 µM) in the experiment with Staphylococcus aureus [3]; 0.12 µg/mL (≈ 0.143 µM) with Streptococcus pneumoniae [4]; 0.25 µg/mL (≈ 0.298 µM) in experiment [5]. The MIC with Staphylococcus aureus [6] was found to be 0.25 µg/mL.

As for `CC[C@H]1OC(=O)[C@H](C)C(=O)[C@H](C)[C@@H](O[C@@H]2O[C@H](C)C[C@H](N(C)C)[C@H]2O)[C@](C)(OC(=O)NN(C)CCc2ccc(-c3cnccn3)cc2)C[C@@H](C)C(=O)[C@H](C)[C@H]2NC(=O)O[C@@]21C`, the MIC against Haemophilus influenzae worked out at 2 µg/mL (≈ 2.34 µM); with Streptococcus pneumoniae [1], 0.06 µg/mL (≈ 0.0703 µM); in the experiment on Streptococcus pneumoniae [2], 0.03 µg/mL (≈ 0.0352 µM); in the experiment with Staphylococcus aureus [3], 0.25 µg/mL (≈ 0.293 µM); with Streptococcus pneumoniae [4] it was 0.25 µg/mL (≈ 0.293 µM); in experiment [5] it was 0.5 µg/mL (≈ 0.586 µM). The MIC in the experiment on Staphylococcus aureus [6] was determined as 0.5 µg/mL.

Turning to `CC[C@H]1OC(=O)[C@H](C)C(=O)[C@H](C)[C@@H](O[C@@H]2O[C@H](C)C[C@H](N(C)C)[C@H]2O)[C@](C)(OC(=O)NN(C)CCCc2ccc(-c3ncccn3)cc2)C[C@@H](C)C(=O)[C@H](C)[C@H]2NC(=O)O[C@@]21C`, the MIC was found to be 8 µg/mL (≈ 9.23 µM) with Haemophilus influenzae; 0.5 µg/mL (≈ 0.577 µM) in the experiment on Streptococcus pneumoniae [1]; 0.06 µg/mL (≈ 0.0692 µM) against Streptococcus pneumoniae [2]; 0.5 µg/mL (≈ 0.577 µM) against Staphylococcus aureus [3]; 0.5 µg/mL (≈ 0.577 µM) against Streptococcus pneumoniae [4]; 1 µg/mL (≈ 1.15 µM) in experiment [5]. Further, the MIC in the experiment on Staphylococcus aureus [6] stood at 1 µg/mL.

For `CC[C@H]1OC(=O)[C@H](C)C(=O)[C@H](C)[C@@H](O[C@@H]2O[C@H](C)C[C@H](N(C)C)[C@H]2O)[C@](C)(OC(=O)NNCCc2cnc3ccccc3c2)C[C@@H](C)C(=O)[C@H](C)[C@H]2NC(=O)O[C@@]21C`, the MIC in the experiment on Haemophilus influenzae is 0.5 µg/mL (≈ 0.616 µM); with Streptococcus pneumoniae [1] it was 0.06 µg/mL (≈ 0.0739 µM); with Streptococcus pneumoniae [2], 0.03 µg/mL (≈ 0.0369 µM); in the experiment with Staphylococcus aureus [3] it was 0.5 µg/mL (≈ 0.616 µM); in the experiment with Streptococcus pneumoniae [4], 0.25 µg/mL (≈ 0.308 µM); in experiment [5], 0.5 µg/mL (≈ 0.616 µM). Moreover, the MIC with Staphylococcus aureus [6] was found to be 1 µg/mL.

Take `CC[C@H]1OC(=O)[C@H](C)C(=O)[C@H](C)[C@@H](O[C@@H]2O[C@H](C)C[C@H](N(C)C)[C@H]2O)[C@](C)(OC(=O)NN(C)CCc2cnc3ccccc3c2)C[C@@H](C)C(=O)[C@H](C)[C@H]2NC(=O)O[C@@]21C`: the MIC was 2 µg/mL (≈ 2.42 µM) against Haemophilus influenzae; 0.12 µg/mL (≈ 0.145 µM) with Streptococcus pneumoniae [1]; 0.06 µg/mL (≈ 0.0726 µM) in the experiment on Streptococcus pneumoniae [2]; 1 µg/mL (≈ 1.21 µM) in the experiment with Staphylococcus aureus [3]; 0.5 µg/mL (≈ 0.605 µM) against Streptococcus pneumoniae [4]; 8 µg/mL (≈ 9.69 µM) in experiment [5]. The MIC in the experiment on Staphylococcus aureus [6] is 2 µg/mL.

With `CC[C@H]1OC(=O)[C@H](C)C(=O)[C@H](C)[C@@H](O[C@@H]2O[C@H](C)C[C@H](N(C)C)[C@H]2O)[C@](C)(OC(=O)NN(C)Cc2ccc(-c3ncccn3)cc2)C[C@@H](C)C(=O)[C@H](C)[C@H]2NC(=O)O[C@@]21C`, the MIC in the experiment with Haemophilus influenzae was 4 µg/mL (≈ 4.77 µM); in the experiment with Streptococcus pneumoniae [1] it was 0.5 µg/mL (≈ 0.596 µM); in the experiment on Streptococcus pneumoniae [2], 0.06 µg/mL (≈ 0.0715 µM); with Staphylococcus aureus [3], 2 µg/mL (≈ 2.38 µM); with Streptococcus pneumoniae [4] it was 1 µg/mL (≈ 1.19 µM); in experiment [5], 2 µg/mL (≈ 2.38 µM). For the same compound, the MIC with Staphylococcus aureus [6] was found to be 8 µg/mL.
